Laboratory results from US20230414778A1, “COMBINATION OF ANTIBODY-DRUG CONJUGATE WITH ANTI-SIRPalpha ANTIBODY” (DAIICHI SANKYO COMPANY, LIMITED, priority 2020, published 2023).

How the values were obtained:
[1] = tested on: mouse colorectal cancer cell line CT26.WT; test: ICD induction evaluation (in vitro): Calreticulin (CRT) on cell surface by flow cytometry; type: cell-based; conditions: CT26.WT after 24 hours; compound (A) 4 μM, MTX 1 μM; adjusted MFI
Method: In cancer cells treated with different compounds, the expression level of Calreticulin (CRT), which serves as an index of Immunogenic cell death (ICD), was measured. Cells of mouse colorectal cancer cell line CT26.WT were seeded in a 6-well plate and cultured overnight. After the supernatant was removed, the cells were washed twice with PBS. In RPMI1640 culture solution containing 10% FBS (R10), compound (A), (4 μM) or Mitoxantrone (MTX) (1 μM) was added. As a control, DMSO was added in the same amount as that of compound (A) (R10-DMSO). After completion of drug treatment, CT26.WT cells were collected and suspended in PBS, and then, seeded in a 96-well (round bottom) plate at 1×10^6 cells/well. […] The expression level of CRT on the cancer cells was measured by flow cytometry (FACS CantoII: manufactured by Becton, Dickinson and Company). Data were analyzed by FlowJo (manufactured by TreeStar Inc). Note that, LIVE/DEAD Fixable Violet-positive cells were determined as dead cells and excluded from the analysis. The mean fluorescence intensity (MFI) of CRT was calculated. The value, which was obtained by subtracting the MFI of the cells treated with Isotype control from the MFI of stained cells, was determined as the adjusted MFI. […] The results satisfying P<0.05 (two-sided test) were determined as being significant (***: P<0.001, **: P<0.01).

[2] = tested on: spleen cells (CD4-positive / CD8-positive T cells, Tcm); test: FCM analysis of spleen cells (T cell populations); type: in vivo, mouse; conditions: for ratio occupied by Tcm in CD4-positive T cells compared to NCD treatment group: PBS administration (FIG. 29A); for ratio occupied by Tcm in CD8-positive T cells compared to NCD treatment group: PBS administration (FIG. 29B); for ratio occupied by CD4-positive T cells in the whole cells / ratio occupied by CD8-positive T cells in the whole cells: plus anti-SIRPα antibody (5C12) (FIG. 30C)
Method: From each of the mice used in Example 3, the spleen was excised out and spleen cells were prepared by use of PBS and seeded in a 96-well (round bottom) plate at 1×10^6 cells/well. After centrifugation was carried out at 1200 rpm for 3 minutes, the supernatant was removed. […] (manufactured by Biolegend, Inc.) diluted to 1/20 with PBS was added up to 100 μL/well. After standing at room temperature for 30 minutes, centrifugation was carried out at 1200 rpm for 3 minutes. The supernatant was removed, and primary-antibody solutions (FITC anti-CD36 antibody, PerCP anti-CD4 antibody, PE/Cy7 anti-CD8a antibody, APC anti-CD62L antibody, and APC/Cy7 anti-CD44 antibody: all manufactured by Biolegend, Inc.) were diluted with FACS buffer (1 mM EDTA, 5% FBS) and added in an amount of 50 μL/well. After standing in a dark place at 4° C. for 25 minutes, centrifugation was carried out at 1200 rpm for 3 minutes, and then the supernatant was removed. Washing was carried out twice with FACS buffer (200 μL/wells). After centrifugation, the supernatant was removed. A suspension was made with Stabilizing Fixative (manufactured by Becton, Dickinson and Company) and allowed to stand at room temperature for 10 minutes. Measurement was carried out by flow cytometry (FACS CantoII: manufactured by Becton, Dickinson and Company). Data were analyzed by use of FlowJo (manufactured by TreeStar Inc). Comparison between the NCD group and each of the drug treatment groups, or comparison among the PBS administration group, the anti-SIRPα antibody group and an anti-CD47 antibody group in each of the cell treatment groups was made in accordance with the Dunnett's multiple comparison. P value was expressed to four decimal places and the results satisfying P<0.05 (two-sided test) were determined as being significant.
Note that individual populations in the CD4-positive T cells and CD8-positive T cells were identified in the following conditions.
Tcm: central memory T cells [CD44(+) CD62L(+)]

[3] = tested on: cells treated with compound (A); conditions: Clin. Invest. 2020: 130(1): 374-388; cited from earlier work
[4] = Clin. Invest. 2020: 130(1): 374-388; cited from earlier work
[5] = plus anti-CD47 antibody (MIAP410) (FIG. 30A)
[6] = plus anti-CD47 antibody (MIAP410) (FIG. 30B)
[7] = plus anti-SIRPα antibody (5C12) (FIG. 30A)
[8] = plus anti-SIRPα antibody (5C12) (FIG. 30B)

Structure (SMILES)	CRT expression on cell surface relative to control group [1]	ratio occupied by Tcm in CD4-positive T cells compared to NCD treatment group [2]	ratio occupied by Tcm in CD8-positive T cells compared to NCD treatment group [2]	ratio occupied by Tcm in CD4-positive T cells compared to the _PBS group of the same drug [2, 5]	ratio occupied by Tcm in CD8-positive T cells compared to the _PBS group of the same drug [2, 6]	ratio occupied by Tcm in CD4-positive T cells compared to the _PBS group of the same drug [2, 7]	ratio occupied by Tcm in CD8-positive T cells compared to the _PBS group of the same drug [2, 8]	ratio occupied by CD4-positive T cells in the whole cells [2]	ratio occupied by CD8-positive T cells in the whole cells [2]	HMGB1 release from treated cells [3]	antitumor effect by vaccination of the treated cells [4]
O=C1c2c(O)ccc(O)c2C(=O)c2c(NCCNCCO)ccc(NCCNCCO)c21 [MTX, Mitoxantrone, reference compound]	about 2.6 times	significantly increased	significantly increased	tendency to increase	tendency to increase	tendency to increase	significantly increased	tendency to increase	significantly increased	–	–
CC[C@@]1(O)C(=O)OCc2c1cc1n(c2=O)Cc2c-1nc1cc(F)c(C)c3c1c2[C@@H](NC(=O)CO)CC3 [compound (A)]	about 12.7 times	significantly increased	significantly increased	significantly decreased	significantly decreased	tendency to increase	substantially the same value	significantly increased	tendency to increase	released	limited antitumor effect
